Legend:
[1] = system: Foscarnet resistant HIVLAI, selection 2 (L214F, M184I); experiment: IC50 by MAGI assay on selected resistant virus; format: cell-based, HIV-1; details: Drug Resistant Virus: Foscarnet (Selection # 2)
Experimental: (§1) Thiovir™ and foscarnet resistant viruses were selected by in vitro passage of HIVLAI on H9 cells in the presence of escalating concentrations of drug. Resistant virus was evaluated for phenotypic changes by IC50 determination using the MAGI assay. Furthermore, the viral DNA was sequenced to determine genotypic variations (Table 4). Two independent 13 to 15 round selections were performed.

[2] = system: Thiovir™ resistant HIVLAI, selection 1 (L214F, R172K, Q174R); experiment: IC50 by MAGI assay on selected resistant virus; format: cell-based, HIV-1; details: for Susceptibility Index (IC50 Resistant Virus/IC50 Purent Virus): Drug Resistant Virus: Thiovir ™ (Selection # 1), MAGI assay
Experimental: as §1

[3] = system: Foscarnet resistant HIVLAI, selection 1 (L214F, R172K); experiment: IC50 by MAGI assay on selected resistant virus; format: cell-based, HIV-1; details: Drug Resistant Virus: Foscarnet (Selection # 1)
Experimental: as §1

[4] = system: Thiovir™ resistant HIVLAI, selection 2 (L214F, M184I); experiment: IC50 by MAGI assay on selected resistant virus; format: cell-based, HIV-1; details: for Susceptibility Index (IC50 Resistant Virus/IC50 Purent Virus): Drug Resistant Virus: Thiovir ™ (Selection # 2), MAGI assay
Experimental: as §1

[5] = system: HIV in H9 T-cells; format: cell-based; details: p24 assay; combined with tenofovir at a ratio of 1:1
Experimental: Reduction in viral titer also can be measured using an ELISA capture assay with antibodies specific for viral capsid proteins (e.g., HIV-1 p24).
H9 T-cells were pretreated with polybrene at 4 μg/ml and drug at indicated concentrations in RPMI plus 10% fetal calf serum for 30 minutes prior to adsorption of virus at multiplicities of infection (MOI) 0.1 for 2 hours at 37° C., 5% CO2. Cells were washed 3 times with PBS and resuspended in fresh media plus drug. Incubation at 37° C., 5% CO2 was continued for 4-6 days and cells centrifuged at 1200 rpm. Supernatants were removed and p24 detected by quantitative antigen capture kit (Zeptometrix, Buffalo, N.Y.).

[6] = system: panel of NRTI and NNRTI resistant HIV-1; experiment: PhenoSense reporter assay, panel of ten resistant viruses; format: cell-based; details: FIG. 2; for susceptibility of the resistant virus panel: all viruses of the panel
From the text: Antiviral activity also can be quantitatively measured using a PhenoSense™ assay. A PhenoSense™ assay uses nucleic acid amplification to derive HIV protease and reverse transcriptase nucleic acid sequences from plasma. The patient-derived sequences are incorporated into a viral vector to construct a resistance test vector (RTV). The viral vector also contains an indicator or reporter gene (e.g., green fluorescent protein, luciferase, beta galactosidase, etc.) inserted within a deleted portion of the HIV envelope gene. The reporter gene is under the control of a strong promoter (e.g., a CMV promoter) in the RTV.
The PhenoSense™ assay is performed by introducing the RTV nucleic acid sequence into host cells, collecting virus particles after transfection, and using the virus particles to infect target cells. Drug susceptibility is measured by comparing reporter gene activity produced in the presence and absence of drugs. The presence of drug can be one or more different concentrations, for example, several titrated concentrations.
The data are analyzed by plotting the percent inhibition of viral replication, as measured by reporter gene activity, against the log10 concentration of drug for the patient virus (in the RTV) and a drug sensitive reference virus. The resulting drug susceptibility curve is used to calculate the concentration of drug required to inhibit viral replication by 50% (IC50). A shift in the patient inhibition curve toward a higher drug concentration as compared to the curve of the drug-sensitive reference virus is interpreted as reduced drug susceptibility. A shift in the patient inhibition curve toward a lower drug concentration as compared to the curve of the drug-sensitive reference virus is interpreted as increased drug susceptibility. PhenoSense™ can be conducted by a commercial service provider, for example, Monogram Biosciences, South San Francisco, Calif.
All Phenosense™ assays were performed at Virologic, Inc as described (Petropoulos, et al. (2000) Antimicrob Agents Chemother 44:920). Briefly, the envelope gene is deleted from wild type HIV-1 and luciferase reporter inserted under control of a strong CMV promoter. Viral stocks are produced by co-transfection of producer cells with the recombinant viral DNA and a vector that expresses envelope protein from an amphotropic murine leukemia virus. Pseudotyped viral particles are replication defective and only undergo one round of infection. Expression of the luciferase gene in target cells is dependent on a single round of infection.
The activity of Thiovir™ was evaluated against viruses that are resistant to common NRTI and NNRTI drugs using the Phenosense™ reporter system (Petropoulos, supra). […]

[7] = system: Thiovir™ and foscarnet selected virus; experiment: Susceptibility of selected viruses; format: cell-based, HIV-1; details: both Thiovir™ and foscarnet selected virus
Experimental: Wild type and antiviral drug resistant HIV were tested for sensitivity to anti-viral drugs using either MAGI assay or Phenosense™ assay. The 50% inhibitory concentration, IC50, was then determined from a plot of percent inhibition vs. log10 drug concentration.
MAGI cells were seeded at approximately 5×10^4 cells per well in a 12 well plate in DMEM with 10% fetal calf serum and incubated overnight at 37° C. in 5% CO2. Drug was added at various concentrations and incubated for approximately 30 to 60 minutes. Cells were infected with either HIV-1 HXB2 or HIV-1IIIB in the presence of either 4 microg/ml polybrene or 60 microg/ml dextran. Infection was continued for 48 hours and cells fixed using 0.05% glutaraldehyde. […] Blue nuclei were counted under a microscope at 100× magnification.
To select for drug resistant variants, 1×10^6H9 cells were pretreated for two hours at three concentrations of AZT (0.5, 1 and 2 μM), Nevirapine (0.5, 1 and 2 μM), foscarnet (25 and 50 μM) and Thiovir™ (25 and 50 μM) prior to infection at MOI of 0.1 of HIVIIIB or HIVLAI. […] Virus was passaged at increasing drug concentration and monitored for increase in IC50. […]
Thiovir™ and foscarnet resistant viruses were selected by in vitro passage of HIVLAI on H9 cells in the presence of escalating concentrations of drug. Resistant virus was evaluated for phenotypic changes by IC50 determination using the MAGI assay. […]

SMILES	Susceptibility Index (IC50 Resistant Virus/IC50 Purent Virus) [1]	Susceptibility Index (IC50 Resistant Virus/IC50 Purent Virus) [2]	Susceptibility Index (IC50 Resistant Virus/IC50 Purent Virus) [3]	Susceptibility Index (IC50 Resistant Virus/IC50 Purent Virus) [4]	drug interaction in words, combined with tenofovir [5]	susceptibility of the resistant virus panel [6]	susceptibility of the majority of the panel viruses [6]	resistance of selected virus ([2]; first Thiovir™ selected resistant virus)	resistance of selected virus ([4]; second Thiovir™ selected resistant virus)	susceptibility of selected virus in words [7]
O=C(O)P(=O)(O)O [Foscarnet, phosphonoformic acid]	103	4.8	4.1	85	additive to antagonistic	sensitive	hypersensitive	–	–	–
O=C(O)P(O)(O)=S [Thiovir™, thiophosphonoformic acid]	100	4.8	6.3	113	synergy	sensitive	hypersensitive	4.8 fold	85 fold	–
Cc1cn([C@H]2C[C@H](N=[N+]=[N-])[C@@H](CO)O2)c(=O)[nH]c1=O [Zidovudine, Azidothymidine]	0.58	0.22	0.87	0.35	–	–	–	–	–	–
Cc1ccnc2c1NC(=O)c1cccnc1N2C1CC1 [Nevirapine]	–	1.05	1.06	–	–	–	–	–	–	sensitive
